From patent publication US20110028507A1, “PYRIDINE DERIVATIVES AND METHODS OF USE THEREOF” (CRYSTALGENOMICS, INC., priority 2007, published 2011)

Columns and labels:
[1] = molecular target: T1, HIF-PH2 (EGLN1) (Homo sapiens, UniProt Q9GZT9); test: HIF-PH2 (PHD2) assay (fluorescence polarization method); type: biochemical; details: 200 nM HIF PH2 enzyme, 50 nM peptide substrate, 30° C. one hour; read-out: IC50 (HIF PH2 inhibition activity)
T1 construct: made in house; host or cells: E. coli
Description: HIF-PH2 (EGLN1) was expressed from E. coli cells, and purified using two process: an Ni-affinity chromatography column and a size-exclusion chromatography column.
To evaluate activities of an HIF PH2 inhibitor, HIF PH2 enzyme that was first overexpressed by genetic recombination and then purified was used to perform an enzyme reaction. […] At this time, 2 mM ascorbic acid and 5 mM ketoglutarate with 100 μM FeCl2 or without FeCl2, were used together with crude enzyme. A concentration of HIF PH2 inhibitor to be tested was treated and reacted at 30° C. for one hour. After the reaction, the resulting reaction product was boiled at 95° C. for one minute to suppress the enzyme reaction.
To determine whether prolyl hydroxylation occurs in the substrate as the secondary reaction, 500 nM GST-VBC (GST-VHL-Elongin B-Elongin C) protein was added to a reaction buffer (50 mM Tris-Cl (pH8.0), 120 mM NaCl, 0.5% Nonidet P40), and a GST-VBC binding reaction was carried out at room temperature for 30 minutes.
A fluorescence polarization value of a sample that is not treated with the HIF PH2 inhibitor was used as 100% control, and the activities of the HIF PH2 inhibitor were measured as percentage of the remaining HIF PH2 enzyme activity in samples treated with a concentration of the HIF PH2 inhibitor to be tested.

[2] = tested on: EPO; test: Human EPO immunoassay (ELISA of Hep3B culture media); type: cell-based; details: Hep3B cells, compound at 100 μM, 24-hour incubation; for EPO (mIU/ml): culture media ELISA; for fold induction at 100 µM: Homo sapiens, read-out: Fold Induction over control (EPO Induction)
Description: Human cells derived from hepatocarcinoma (Hep3B) tissue (see, e.g., American Type Culture Collection, Manassas Va.) were grown at 37° C., 20% O2, 5% CO2 in DMEM (GIBCO)+10% FBS, 4.5 g/L D-Glucose; L-Glutamate and 110 mg/L sodium pyruvate. Ninety-six well plates were seeded with 4×10^4 HEP3B cells/well. The media was removed and replaced with DMEM+10% FBS. Compounds were added to wells at concentrations between 1 μM-100 μM for a 24-hour incubation. Cell culture media was harvested and EPO concentration was determined using a Human Erythropoietin Quantikine IVD ELISA Kit (R&D Systems®, Minneapolis, Minn.) following the manufacturer's instructions for the benchtop assay.

T1 sequence (Q9GZT9 whole entry, species assumed): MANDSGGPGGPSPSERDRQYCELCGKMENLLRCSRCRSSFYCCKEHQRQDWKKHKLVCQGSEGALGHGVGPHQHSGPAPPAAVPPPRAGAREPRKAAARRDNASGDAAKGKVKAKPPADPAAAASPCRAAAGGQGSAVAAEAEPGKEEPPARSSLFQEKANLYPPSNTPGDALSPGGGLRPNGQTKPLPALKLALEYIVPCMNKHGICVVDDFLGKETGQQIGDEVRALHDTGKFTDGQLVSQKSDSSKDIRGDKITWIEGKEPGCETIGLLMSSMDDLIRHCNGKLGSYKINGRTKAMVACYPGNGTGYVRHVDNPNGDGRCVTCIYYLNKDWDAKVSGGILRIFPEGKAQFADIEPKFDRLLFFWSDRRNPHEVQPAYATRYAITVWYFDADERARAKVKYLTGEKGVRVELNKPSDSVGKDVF

| SMILES | IC50 [1] [µM] | EPO (mIU/ml) [2] | fold induction at 100 µM [2] |
| --- | --- | --- | --- |
| O=C(O)CNC(=O)c1nc(Br)c2c(sc3ccccc32)c1F [[(1-Bromo-4-fluoro-benzo[4,5]thieno[3,2-c]pyridine-3-carbonyl)-amino]-acetic acid] | < 25 |  |  |
| C[C@H](NC(=O)c1ncc2ccoc2c1O)C(=O)O [(S)-2-[(7-Hydroxy-furo[3,2-c]pyridine-6-carbonyl)-amino]-propionic acid] | > 201 |  |  |
| O=C(O)CNC(=O)c1ncc2c(sc3ccccc32)c1O [[(4-Hydroxy-benzo[4,5]thieno[3,2-c]pyridine-3-carbonyl)-amino]-acetic acid] |  | I (I = 0-20 mIU/ml) | < 20 |
| O=C(O)CNC(=O)c1nc(Cl)c2c(sc3ccc(O)cc32)c1O [[(1-Chloro-4,8-dihydroxy-benzo[4,5]thieno[3,2-c]pyridine-3-carbonyl)-amino]-acetic acid] | < 25 | I (I = 0-20 mIU/ml) | < 20 |
| O=C(O)CNC(=O)c1ncc2ccoc2c1O [[(7-Hydroxy-furo[3,2-c]pyridine-6-carbonyl)-amino]-acetic acid] | > 201 |  |  |
| O=C(O)CNC(=O)c1nc(Cl)c2c(sc3ccc([S+]([O-])c4ccccc4)cc32)c1O (centres unmarked) [[(8-Benzenesulfinyl-1-chloro-4-hydroxy-benzo[4,5]thieno[3,2-c]pyridine-3-carbonyl)-amino]-acetic acid] | < 25 |  |  |
| COC(=O)CNC(=O)c1nc(Cl)c2c(ccn2S(=O)(=O)c2ccccc2)c1O [[(1-Benzenesulfonyl-7-chloro-4-hydroxy-1H-pyrrolo[2,3-c]pyridine-5-carbonyl)-amino]-acetic acid methyl ester] | < 25 |  |  |
| O=C(O)CNC(=O)c1nc(Cl)c2c(sc3ccc(C(F)(F)F)cc32)c1O [[(1-Chloro-4-hydroxy-8-trifluoromethyl-benzo[4,5]thieno[3,2-c]pyridine-3-carbonyl)-amino]-acetic acid] | < 25 | J (J = 21-40 mIU/ml) | 21 to 50 |
| O=C(O)CNC(=O)c1ncc2c(-c3ccccc3)coc2c1O [[(7-Hydroxy-3-phenyl-furo[3,2-c]pyridine-6-carbonyl)-amino]-acetic acid] | 101 to 200 |  |  |
| O=C(O)CNC(=O)c1nc(Cl)c2c(ccn2S(=O)(=O)c2ccccc2)c1O [[(1-Benzenesulfonyl-7-chloro-4-hydroxy-1H-pyrrolo[2,3-c]pyridine-5-carbonyl)-amino]-acetic acid] | < 25 | I (I = 0-20 mIU/ml) | < 20 |
| Cc1nc(C(=O)NCC(=O)O)c(O)c2sc3cc(F)ccc3c12 [[(7-Fluoro-4-hydroxy-1-methyl-benzo[4,5]thieno[3,2-c]pyridine-3-carbonyl)-amino]-acetic acid] | < 25 | L (L = >61 mIU/ml) | 21 to 50 |
| CCNc1ccc2sc3c(O)c(C(=O)NCC(=O)O)nc(Cl)c3c2c1 [[(1-Chloro-8-ethylamino-4-hydroxy-benzo[4,5]thieno[3,2-c]pyridine-3-carbonyl)-amino]-acetic acid] | < 25 | K (K = 41-60 mIU/ml) | 51 to 70 |
| O=C(O)CNC(=O)c1ncc2c(oc3ccccc32)c1O [[(4-Hydroxy-benzo[4,5]furo[3,2-c]pyridine-3-carbonyl)-amino]-acetic acid] |  | I (I = 0-20 mIU/ml) | < 20 |
| O=C(NCc1cccnc1)c1nc(Br)c2c(sc3ccccc32)c1O [1-Bromo-4-hydroxy-benzo[4,5]thieno[3,2-c]pyridine-3-carboxylic acid (pyridin-3-ylmethyl)-amide] | 26 to 100 |  |  |
| O=C(O)CNC(=O)c1nc(Cl)c2c(sc3ccc(S(=O)(=O)c4ccccc4)cc32)c1O [[(8-Benzenesulfonyl-1-chloro-4-hydroxy-benzo[4,5]thieno[3,2-c]pyridine-3-carbonyl)-amino]-acetic acid] | < 25 |  |  |
| O=C(O)CN(O)C(=O)c1ncc2c(sc3ccccc32)c1Cl [[(4-Chloro-benzo[4,5]thieno[3,2-c]pyridine-3-carbonyl)-hydroxy-amino]-acetic acid] | > 201 |  |  |

| SMILES | IC50 [1] [µM] | EPO (mIU/ml) [2] | fold induction at 100 µM [2] |
| --- | --- | --- | --- |
| CC(C)Oc1c(C(=O)NCC(=O)O)nc(Cl)c2c1sc1ccc(O)cc12 [[(1-Chloro-8-hydroxy-4-isopropoxy-benzo[4,5]thieno[3,2-c]pyridine-3-carbonyl)-amino]-acetic acid] | 101 to 200 |  |  |
| O=C(O)CN(O)C(=O)c1ncc2c(sc3ccccc32)c1O [[Hydroxy-(4-hydroxy-benzo[4,5]thieno[3,2-c]pyridine-3-carbonyl)-amino]-acetic acid] | 101 to 200 |  |  |
| Cc1nc(C(=O)NCC(=O)O)c(O)c2sc3ccccc3c12 [[(4-Hydroxy-1-methyl-benzo[4,5]thieno[3,2-c]pyridine-3-carbonyl)-amino]-acetic acid] |  | J (J = 21-40 mIU/ml) | > 71 |
| O=C(O)CNC(=O)c1nc(Cl)c2c(sc3ccc(NCc4ccccc4)cc32)c1O [[(8-Benzylamino-1-chloro-4-hydroxy-benzo[4,5]thieno[3,2-c]pyridine-3-carbonyl)-amino]-acetic acid] | < 25 |  |  |
| COc1ccc2c(c1)sc1c(O)c(C(=O)NCC(=O)O)nc(Cl)c12 [[(1-Chloro-4-hydroxy-7-methoxy-benzo[4,5]thieno[3,2-c]pyridine-3-carbonyl)-amino]-acetic acid] | < 25 | I (I = 0-20 mIU/ml) | 21 to 50 |
| O=C(O)CNC(=O)c1nc(Cl)c2[nH]ccc2c1O [[(7-Chloro-4-hydroxy-1H-pyrrolo[2,3-c]pyridine-5-carbonyl)-amino]-acetic acid] | > 201 |  |  |
| O=C(O)CNC(=O)c1ncc2c(cnn2-c2ccccn2)c1O [[(4-Hydroxy-1-pyridin-2-yl-1H-pyrazolo[3,4-c]pyridine-5-carbonyl)-amino]-acetic acid] | < 25 | I (I = 0-20 mIU/ml) | < 20 |
| COc1c(C(=O)NCC(=O)O)nc(Cl)c2c1sc1ccc(O)cc12 [[(1-Chloro-8-hydroxy-4-methoxy-benzo[4,5]thieno[3,2-c]pyridine-3-carbonyl)-amino]-acetic acid] | 101 to 200 |  |  |
| CCS(=O)(=O)c1ccc2sc3c(O)c(C(=O)NCC(=O)O)nc(Cl)c3c2c1 [[(1-Chloro-8-ethanesulfonyl-4-hydroxy-benzo[4,5]thieno[3,2-c]pyridine-3-carbonyl)-amino]-acetic acid] | 26 to 100 |  |  |
| O=C(O)CNC(=O)c1nc(Cl)c2c(sc3ccc(NS(=O)(=O)c4ccccc4)cc32)c1O [[(8-Benzenesulfonylamino-1-chloro-4-hydroxy-benzo[4,5]thieno[3,2-c]pyridine-3-carbonyl)-amino]-acetic acid] | < 25 | I (I = 0-20 mIU/ml) | < 20 |
| Nc1c(C(=O)NCC(=O)O)nc(Br)c2c1sc1ccccc12 [[(4-Amino-1-bromo-benzo[4,5]thieno[3,2-c]pyridine-3-carbonyl)-amino]-acetic acid] | > 201 |  |  |
| O=C(O)CNC(=O)c1nc(Cl)c2c(sc3cc(O)ccc32)c1O [[(1-Chloro-4,7-dihydroxy-benzo[4,5]thieno[3,2-c]pyridine-3-carbonyl)-amino]-acetic acid] | < 25 | I (I = 0-20 mIU/ml) | < 20 |
| CC(C)Oc1ccc2c(c1)sc1c(O)c(C(=O)NCC(=O)O)nc(Cl)c12 [[(1-Chloro-4-hydroxy-7-isopropoxy-benzo[4,5]thieno[3,2-c]pyridine-3-carbonyl)-amino]-acetic acid] | < 25 | L (L = >61 mIU/ml) | 21 to 50 |
| CCN(CC)c1ccc2sc3c(O)c(C(=O)NCC(=O)O)nc(Cl)c3c2c1 [[(1-Chloro-8-diethylamino-4-hydroxy-benzo[4,5]thieno[3,2-c]pyridine-3-carbonyl)-amino]-acetic acid] | < 25 | J (J = 21-40 mIU/ml) | 21 to 50 |
| O=C(O)CNC(=O)c1nc(Cl)c2c(sc3ccc(S(=O)(=O)Cc4ccccc4)cc32)c1O [[(1-Chloro-4-hydroxy-8-phenylmethanesulfonyl-benzo[4,5]thieno[3,2-c]pyridine-3-carbonyl)-amino]-acetic acid] | 26 to 100 |  |  |
